Reference: patent publication US20230277508A1, “USE OF COMPOUND AS CYP2E1 INHIBITOR” (SHANGHAI LING XI BIOTECHNOLOGY DEVELOPMENT CO., LTD., priority 2020, published 2023)

Assays:
Format in all cases: biochemical
[1] = target: T1, human liver microsome CYP2E1 (Homo sapiens, UniProt P05181); assay: Determination of IC50 for a CYP2E1 inhibitory effect (CZX probe, mixed liver microsome); conditions: for inhibitory effect on CYP2E1 (in words): in vitro, method of Example 8; for IC50: mixed liver microsome of healthy individuals 0.3 mg/mL, 62.5 μM CZX, 1 mM NADPH, 30 min, read-out: IC50 for 2E1 inhibition
T1 construct: metabolic activity of a mixed liver microsome CYP2E1 of a healthy individual; from tissue; host or cells: mixed (pooled) human liver microsomes of healthy individuals
Method: CZX was used as a probe substrate to detect an inhibitory effect of an inhibitor to be tested on the metabolic activity of a mixed liver microsome CYP2E1 of a healthy individual (IC50: half inhibition concentration; Ki: inhibition constant; the smaller the IC50 and the smaller the Ki, the higher the inhibition intensity of the inhibitor), thereby determining an inhibitory effect of the inhibitor to be tested on the human liver microsome CYP2E1.
An incubation system in a total volume of 100 μL was adopted, including a substrate, an inhibitor of different concentrations, a liver microsomal protein, and phosphate-buffered saline (PBS). The incubation system was pre-incubated in a 37° C. water bath for 5 min, reduced coenzyme was added to allow a reaction for 30 min, and then the reaction was terminated in an ice bath. In a specific experiment, a concentration of an inhibitor can be selected as required.
In this example, the incubation system includes 62.5 μM CZX, 100 mM (pH=7.4) PBS, 0.3 mg/mL liver microsomal protein, and 1 mM NADPH.
In this example, the reaction is terminated with 1 mL of ethyl acetate. In other preferred examples, the reaction may also be terminated with 1 mL of methyl tert-butyl ether (MTBE), 1 mL of diethyl ether, or 100 μL of methanol.

CYP2A6 = target: T2, CYP2A6 (Homo sapiens, UniProt P11509); assay: Determination of selectivity of a CYP2E1 inhibitor: CYP2A6; conditions: mixed human liver microsome, 2.5 μM coumarin probe; read-out: IC50 for 2A6 inhibition
T2 construct: With a mixed liver microsome of a healthy individual as a research object; from tissue; host or cells: mixed (pooled) human liver microsomes of healthy individuals
Excerpt: (§1) With a mixed liver microsome of a healthy individual as a research object, probe drugs CYP1A2, CYP2A6, CYP2B6, CYP2C8, CYP2C9, CYP2C19, CYP2D6, CYP2E1, and CYP3A4 were selected to determine an in vitro inhibitory effect of an inhibitor to be tested on the metabolism of the probe drugs CYP1A2, CYP2A6, CYP2B6, CYP2C8, CYP2C9, CYP2C19, CYP2D6, CYP2E1, and CYP3A4 for the mixed liver microsome of the healthy human, and the selectivity of the inhibitor to be tested for a CYP2E1 inhibitory effect was evaluated.
(§2) The CYP1A2 probe is 6.25 μM to 800 μM phenacetin or 27.5 μM to 12,520 μM caffeine; • the CYP2A6 probe is 0.156 μM to 20 μM coumarin or 12.5 μM to 2,000 μM nicotine; • the CYP2B6 probe is 7.8 μM to 500 μM bupropion or 0.25 mM to 30 mM cyclophosphamide; • the CYP2C8 probe is 2.5 μM to 80 μM paclitaxel or 0.125 μM to 128 μM amodiaquine; • the CYP2C9 probe is 31.25 μM to 2,000 μM tolbutamide or 0.1 μM to 200 μM diclofenac; • the CYP2C19 probe is 3.9 μM to 500 μM omeprazole or 1.95 μM to 1,000 μM mephenytoin; • the CYP2D6 probe is 0.625 μM to 96 μM dextromethorphan or 0.0195 μM to 80 μM propafenone; and • the CYP3A4 probe is 0.39 μM to 50 μM midazolam or 1.98 μM to 1,000 μM testosterone.
(§3) An incubation system in a total volume of 100 μL was adopted, including a substrate, an inhibitor of different concentrations, a liver microsomal protein, and PBS. […]

CYP2C9 = target: T3, CYP2C9 (Homo sapiens, UniProt P11712); assay: Determination of selectivity of a CYP2E1 inhibitor: CYP2C9; conditions: mixed human liver microsome, 250 μM tolbutamide probe; read-out: IC50 of the inhibition for CYP2C9
T3 construct: With a mixed liver microsome of a healthy individual as a research object; from tissue; host or cells: mixed (pooled) human liver microsomes of healthy individuals
Excerpt: as §1, §2, §3

T1 sequence (P05181 whole entry): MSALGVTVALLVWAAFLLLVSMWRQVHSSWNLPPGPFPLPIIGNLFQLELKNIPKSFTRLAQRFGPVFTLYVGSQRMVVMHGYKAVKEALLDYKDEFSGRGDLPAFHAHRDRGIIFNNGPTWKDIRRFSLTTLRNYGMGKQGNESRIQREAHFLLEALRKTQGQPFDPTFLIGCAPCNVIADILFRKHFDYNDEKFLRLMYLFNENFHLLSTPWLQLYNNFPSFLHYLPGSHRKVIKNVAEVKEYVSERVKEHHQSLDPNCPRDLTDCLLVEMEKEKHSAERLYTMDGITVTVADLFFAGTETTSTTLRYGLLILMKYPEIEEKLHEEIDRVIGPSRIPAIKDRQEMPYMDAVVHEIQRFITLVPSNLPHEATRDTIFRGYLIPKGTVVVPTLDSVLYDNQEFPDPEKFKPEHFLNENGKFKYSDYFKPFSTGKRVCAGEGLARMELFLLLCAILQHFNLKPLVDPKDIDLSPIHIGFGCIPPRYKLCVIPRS
T2 sequence (P11509 whole entry): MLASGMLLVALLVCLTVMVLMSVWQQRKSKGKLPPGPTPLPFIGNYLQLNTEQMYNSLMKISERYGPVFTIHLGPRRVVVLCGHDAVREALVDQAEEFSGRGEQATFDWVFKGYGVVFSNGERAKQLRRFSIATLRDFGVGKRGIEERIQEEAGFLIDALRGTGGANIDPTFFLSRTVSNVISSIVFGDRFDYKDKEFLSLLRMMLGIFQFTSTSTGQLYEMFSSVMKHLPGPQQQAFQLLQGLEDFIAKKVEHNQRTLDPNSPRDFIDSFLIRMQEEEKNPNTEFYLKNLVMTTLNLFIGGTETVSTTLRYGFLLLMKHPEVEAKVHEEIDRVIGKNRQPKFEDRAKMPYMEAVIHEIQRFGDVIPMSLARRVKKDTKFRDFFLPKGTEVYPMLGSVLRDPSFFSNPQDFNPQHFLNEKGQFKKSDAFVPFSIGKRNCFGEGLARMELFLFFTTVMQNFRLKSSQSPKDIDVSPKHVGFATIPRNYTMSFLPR
T3 sequence (P11712 whole entry): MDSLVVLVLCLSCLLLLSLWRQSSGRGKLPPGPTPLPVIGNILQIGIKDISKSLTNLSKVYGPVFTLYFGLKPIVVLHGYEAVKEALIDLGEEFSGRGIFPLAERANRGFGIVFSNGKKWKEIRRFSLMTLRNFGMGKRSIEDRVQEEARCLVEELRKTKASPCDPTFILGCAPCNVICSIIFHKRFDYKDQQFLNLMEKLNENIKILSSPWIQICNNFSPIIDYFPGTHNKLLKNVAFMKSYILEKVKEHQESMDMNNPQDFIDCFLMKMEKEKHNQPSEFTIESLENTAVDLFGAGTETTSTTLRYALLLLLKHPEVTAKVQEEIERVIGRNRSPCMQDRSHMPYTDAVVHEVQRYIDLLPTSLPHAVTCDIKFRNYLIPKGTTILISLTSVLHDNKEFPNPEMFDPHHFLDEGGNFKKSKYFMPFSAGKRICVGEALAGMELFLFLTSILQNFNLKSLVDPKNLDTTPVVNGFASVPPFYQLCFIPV

inhibitory effect on CYP2E1 (in words) [1]	IC50 [1]	IC50 (CYP2A6)	IC50 (CYP2C9)	SMILES
significant inhibitory effect	7.99 µM	55.6 µM	1.86 µM	CCc1nc(COC(=O)c2cccn2Cc2ccncc2)cs1 [SMI1]
significant inhibitory effect	17 µM			CO/N=C(\C)c1scnc1C [SMI8]
slight inhibitory effect	115 µM			COc1cccc(/C=C/C(=O)c2scnc2C)c1 [SMI10]
